Experimental data taken from a compilation of properties of binary mixtures (doi:10.1016/j.molliq.2017.02.011).

Assay: xn = mol fraction of the nth substance listed
Settings: 100 kPa

A speed of sound (298.15 K, x2 = 0) of 1414.5 m/s and a speed of sound (308.15 K, x2 = 0) of 1375.1 m/s were found for `O=C1CCCCC1` + CCCC[n+]1ccn(C)c1C.F[B-](F)(F)F in this work.
A speed of sound (293.15 K, x1 = 0.0834) of 1450.2 m/s, a speed of sound (293.15 K, x1 = 0.1328) of 1459.4 m/s and a speed of sound (293.15 K, x1 = 0.1764) of 1467.2 m/s were found for `CCCC[n+]1ccn(C)c1C.F[B-](F)(F)F` + O=C1CCCCC1 in this work. The speed of sound (293.15 K, x1 = 0.2258) was 1472.4 m/s, the speed of sound (293.15 K, x1 = 0.2675) was 1476.1 m/s and the speed of sound (293.15 K, x1 = 0.3094) was 1479.6 m/s. It also gave a speed of sound (293.15 K, x1 = 0.3824) of 1486 m/s, a speed of sound (293.15 K, x1 = 0.4755) of 1496 m/s and a speed of sound (293.15 K, x1 = 0.5276) of 1503.2 m/s. The speed of sound (293.15 K, x1 = 0.5649) was 1509.3 m/s, the speed of sound (293.15 K, x1 = 0.6063) was 1517 m/s and the speed of sound (293.15 K, x1 = 0.6451) was 1525.2 m/s. It also gave a speed of sound (293.15 K, x1 = 0.7419) of 1550.5 m/s, a speed of sound (293.15 K, x1 = 0.8527) of 1589.2 m/s and a speed of sound (293.15 K, x1 = 0.9134) of 1615.7 m/s. For the same molecule, the speed of sound (293.15 K, x1 = 1) was 1659.7 m/s, the speed of sound (298.15 K, x1 = 0.0834) was 1433.6 m/s and the speed of sound (298.15 K, x1 = 0.1328) was 1442.1 m/s. For the same molecule, the speed of sound (298.15 K, x1 = 0.1764) was 1448.8 m/s, the speed of sound (298.15 K, x1 = 0.2675) was 1458.1 m/s and the speed of sound (298.15 K, x1 = 0.3824) was 1468.5 m/s. It also gave a speed of sound (298.15 K, x1 = 0.4755) of 1478.6 m/s, a speed of sound (298.15 K, x1 = 0.5276) of 1486.2 m/s and a speed of sound (298.15 K, x1 = 0.5649) of 1492.5 m/s. It also gave a speed of sound (298.15 K, x1 = 0.6063) of 1500.4 m/s, a speed of sound (298.15 K, x1 = 0.6451) of 1508.9 m/s and a speed of sound (298.15 K, x1 = 0.6947) of 1521.1 m/s. The speed of sound (298.15 K, x1 = 0.7419) was 1534.8 m/s, the speed of sound (298.15 K, x1 = 0.7994) was 1553.9 m/s and the speed of sound (298.15 K, x1 = 0.8527) was 1574.3 m/s. The speed of sound (298.15 K, x1 = 1) was 1645.7 m/s, the speed of sound (303.15 K, x1 = 0.0834) was 1413.1 m/s and the speed of sound (303.15 K, x1 = 0.1328) was 1421.5 m/s. The speed of sound (303.15 K, x1 = 0.1764) was 1427.9 m/s, the speed of sound (303.15 K, x1 = 0.2258) was 1433.4 m/s and the speed of sound (303.15 K, x1 = 0.2675) was 1437.7 m/s. The speed of sound (303.15 K, x1 = 0.3094) was 1441.5 m/s, the speed of sound (303.15 K, x1 = 0.4368) was 1454.6 m/s and the speed of sound (303.15 K, x1 = 0.5276) was 1467.5 m/s. It also gave a speed of sound (303.15 K, x1 = 0.5649) of 1474.1 m/s, a speed of sound (303.15 K, x1 = 0.6063) of 1482.5 m/s and a speed of sound (303.15 K, x1 = 0.6947) of 1504.3 m/s. For the same molecule, the speed of sound (303.15 K, x1 = 0.7419) was 1518.7 m/s, the speed of sound (303.15 K, x1 = 0.8527) was 1559.8 m/s and the speed of sound (303.15 K, x1 = 0.9134) was 1587.9 m/s. For the same molecule, the speed of sound (303.15 K, x1 = 1) was 1632.5 m/s, the speed of sound (308.15 K, x1 = 0.0834) was 1392 m/s and the speed of sound (308.15 K, x1 = 0.1764) was 1406.3 m/s. The speed of sound (308.15 K, x1 = 0.2258) was 1412.3 m/s, the speed of sound (308.15 K, x1 = 0.2675) was 1417.1 m/s and the speed of sound (308.15 K, x1 = 0.3094) was 1420.8 m/s. For the same molecule, the speed of sound (308.15 K, x1 = 0.3824) was 1428.9 m/s, the speed of sound (308.15 K, x1 = 0.4368) was 1434.8 m/s and the speed of sound (308.15 K, x1 = 0.4755) was 1440.1 m/s. The speed of sound (308.15 K, x1 = 0.5276) was 1448.5 m/s, the speed of sound (308.15 K, x1 = 0.5649) was 1455.6 m/s and the speed of sound (308.15 K, x1 = 0.6063) was 1464.2 m/s. It also gave a speed of sound (308.15 K, x1 = 0.6451) of 1473.4 m/s, a speed of sound (308.15 K, x1 = 0.6947) of 1487.3 m/s and a speed of sound (308.15 K, x1 = 0.8527) of 1544.8 m/s.
